Assay results reported in paper PMC8398847, “Isavuconazole: Thermodynamic Evaluation of Processes Sublimation, Dissolution and Partition in Pharmaceutically Relevant Media” (Molecules, 2021).

Test: Solubility data modeling (modified Apelblat and van’t Hoff equations)
Text: The modified Apelblat model developed for nonideal solutions is one of the most frequently used models for prediction and correlation of solubility data and can be expressed as follows:(21) lnx=A+B/T/K+Cln(T/K) where x is the compound solubility in the studied solvents, which can be determined by Equation (8); T is the absolute temperature; A, B and C are three empirical constants of the equation. The A and B values represent changes in the solution behavior as a result of the nonideality of the solute solubility, whereas C reflects the connection between the melting point and enthalpy. Despite its simple mathematical expression, this model can ensure high accuracy of prediction of the solute solubility at a variety of temperature values.
The van’t Hoff equation can be used to calculate the relationship between the solubility of solute and temperature. The equation can be simplified as Equation (22). (22) lnx=A+B/(T/K) where x represents the mole fraction solubility of compound. T is the absolute temperature and A, B are the regression parameters obtained using multivariable least-square method.

C[C@@H](c1nc(-c2ccc(C#N)cc2)cs1)[C@](O)(Cn1cncn1)c1cc(F)ccc1F [IVZ, Isavuconazole]
xcal modified Apelblat equation (1-octanol, 293.15 K): 6.2160·10^−3
xcal van’t Hoff equation (1-octanol, 293.15 K): 6.2245·10^−3
xcal modified Apelblat equation (1-octanol, 298.15 K): 7.4880·10^−3
xcal van’t Hoff equation (1-octanol, 298.15 K): 7.4831·10^−3
xcal modified Apelblat equation (1-octanol, 303.15 K): 8.9532·10^−3
xcal van’t Hoff equation (1-octanol, 303.15 K): 8.9416·10^−3
xcal modified Apelblat equation (1-octanol, 308.15 K): 10.629·10^−3
xcal van’t Hoff equation (1-octanol, 308.15 K): 10.623·10^−3
xcal modified Apelblat equation (1-octanol, 313.15 K): 12.534·10^−3
xcal van’t Hoff equation (1-octanol, 313.15 K): 12.551·10^−3
xcal modified Apelblat equation (1-propanol, 293.15 K): 7.8833·10^−3
xcal van’t Hoff equation (1-propanol, 293.15 K): 7.8924·10^−3
xcal modified Apelblat equation (1-propanol, 298.15 K): 9.5597·10^−3
xcal van’t Hoff equation (1-propanol, 298.15 K): 9.5750·10^−3
xcal modified Apelblat equation (1-propanol, 303.15 K): 11.528·10^−3
xcal van’t Hoff equation (1-propanol, 303.15 K): 11.542·10^−3
xcal modified Apelblat equation (1-propanol, 308.15 K): 13.827·10^−3
xcal van’t Hoff equation (1-propanol, 308.15 K): 13.830·10^−3
xcal modified Apelblat equation (1-propanol, 313.15 K): 16.501·10^−3
xcal van’t Hoff equation (1-propanol, 313.15 K): 16.475·10^−3
xcal modified Apelblat equation (buffer pH 1.2, 293.15 K): 6.8301·10^−7
xcal van’t Hoff equation (buffer pH 1.2, 293.15 K): 6.8234·10^−7
xcal modified Apelblat equation (buffer pH 1.2, 298.15 K): 7.6469·10^−7
xcal van’t Hoff equation (buffer pH 1.2, 298.15 K): 7.6519·10^−7
xcal modified Apelblat equation (buffer pH 1.2, 303.15 K): 8.5388·10^−7
xcal van’t Hoff equation (buffer pH 1.2, 303.15 K): 8.5488·10^−7
xcal modified Apelblat equation (buffer pH 1.2, 308.15 K): 9.5109·10^−7
xcal van’t Hoff equation (buffer pH 1.2, 308.15 K): 9.5164·10^−7
xcal modified Apelblat equation (buffer pH 1.2, 313.15 K): 10.568·10^−7
xcal van’t Hoff equation (buffer pH 1.2, 313.15 K): 10.557·10^−7
xcal modified Apelblat equation (buffer pH 2.0, 293.15 K): 1.8489·10^−7
xcal van’t Hoff equation (buffer pH 2.0, 293.15 K): 1.8386·10^−7
xcal modified Apelblat equation (buffer pH 2.0, 298.15 K): 2.2301·10^−7
xcal van’t Hoff equation (buffer pH 2.0, 298.15 K): 2.2353·10^−7
xcal modified Apelblat equation (buffer pH 2.0, 303.15 K): 2.6872·10^−7
xcal van’t Hoff equation (buffer pH 2.0, 303.15 K): 2.7002·10^−7
xcal modified Apelblat equation (buffer pH 2.0, 308.15 K): 3.2354·10^−7
xcal van’t Hoff equation (buffer pH 2.0, 308.15 K): 3.2418·10^−7
xcal modified Apelblat equation (buffer pH 2.0, 313.15 K): 3.8914·10^−7
xcal van’t Hoff equation (buffer pH 2.0, 313.15 K): 3.8694·10^−7
xcal modified Apelblat equation (buffer pH 7.4, 293.15 K): 1.1915·10^−7
xcal van’t Hoff equation (buffer pH 7.4, 293.15 K): 1.1936·10^−7
xcal modified Apelblat equation (buffer pH 7.4, 298.15 K): 1.4708·10^−7
xcal van’t Hoff equation (buffer pH 7.4, 298.15 K): 1.4693·10^−7
xcal modified Apelblat equation (buffer pH 7.4, 303.15 K): 1.7998·10^−7
xcal van’t Hoff equation (buffer pH 7.4, 303.15 K): 1.7964·10^−7
xcal modified Apelblat equation (buffer pH 7.4, 308.15 K): 2.1840·10^−7
xcal van’t Hoff equation (buffer pH 7.4, 308.15 K): 2.1821·10^−7
xcal modified Apelblat equation (buffer pH 7.4, 313.15 K): 2.6294·10^−7
xcal van’t Hoff equation (buffer pH 7.4, 313.15 K): 2.6341·10^−7
xcal modified Apelblat equation (ethanol, 293.15 K): 0.9240·10^−2
xcal van’t Hoff equation (ethanol, 293.15 K): 0.9213·10^−2
xcal modified Apelblat equation (ethanol, 298.15 K): 1.1326·10^−2
xcal van’t Hoff equation (ethanol, 298.15 K): 1.1348·10^−2
xcal modified Apelblat equation (ethanol, 303.15 K): 1.3835·10^−2
xcal van’t Hoff equation (ethanol, 303.15 K): 1.3883·10^−2
xcal modified Apelblat equation (ethanol, 308.15 K): 1.6844·10^−2
xcal van’t Hoff equation (ethanol, 308.15 K): 1.6873·10^−2
xcal modified Apelblat equation (ethanol, 313.15 K): 2.0441·10^−2
xcal van’t Hoff equation (ethanol, 313.15 K): 2.0379·10^−2
xcal modified Apelblat equation (hexane, 293.15 K): 5.5187·10^−5
xcal van’t Hoff equation (hexane, 293.15 K): 5.5171·10^−5
xcal modified Apelblat equation (hexane, 298.15 K): 7.0549·10^−5
xcal van’t Hoff equation (hexane, 298.15 K): 7.0584·10^−5
xcal modified Apelblat equation (hexane, 303.15 K): 8.9506·10^−5
xcal van’t Hoff equation (hexane, 303.15 K): 8.9572·10^−5
xcal modified Apelblat equation (hexane, 308.15 K): 11.274·10^−5
xcal van’t Hoff equation (hexane, 308.15 K): 11.279·10^−5
xcal modified Apelblat equation (hexane, 313.15 K): 14.103·10^−5
xcal van’t Hoff equation (hexane, 313.15 K): 14.099·10^−5
